Assay results as given in patent EP4799701A2, “PYRIMID-2-YL-PYRAZOLE COMPOUNDS AS IRAK INHIBITORS” (Rigel Pharmaceuticals, Inc., priority 2022, dated 2023).
Values joined by “and” are separate entries in the source; they are usually repeats but may differ in a detail not shown here. Equal values may be shown once.

Tests used:
[1] = Rat brain homogenate binding, equilibrium dialysis (RED); type: in vitro ADME
Description: (§1) Brain and plasma drug binding were performed by equilibrium dialysis using the Rapid Equilibrium Dialysis (RED) device. Briefly, 300 µL of plasma or brain homogenate (1 brain /3 buffer) containing drug (5 µM) was equilibrated (4-18 h) against 500 µL of buffered saline. After incubation, the concentration of drug in plasma/brain homogenate and buffer was determined by LC-MS/MS.
Two runs of rat brain homogenate binding with I-1 compared to Comparison-1. I-1 is approximately 10-fold more free in rat brain than Comparison-1.

[2] = tested on: IL-1β-induced production of the cytokine IL-6; experiment: IL-1β-induced IL-6 in primary human endothelial cells; type: cell-based; details: result in words
[3] = Plasma protein binding, free drug comparison across species; type: in vitro ADME; details: free drug in rat, dog, monkey and human proteins
Description: as §1
Higher free drug in plasma and brain allow for more drug to interact with the target. [drawing 34]
From a free drug perspective compound I-1 was approximately 6-times more free than Comparision-1 in rat, dog, monkey and human proteins.

TLR4-dependent = TLR4-dependent cytokine production in mouse macrophages; type: cell-based; details: result in words
TLR2- induced TNF-α = experiment: TLR2-induced TNF-α in human primary dendritic cells; type: cell-based; details: human primary dendritic cells (DC); result in words
TLR4-induced IL-23 = experiment: IL23-p19 ELISA, dendritic cells (PBMC-derived), LPS stimulated; type: cell-based; details: human primary dendritic cells (DC); result in words
Description: Compound Screening Using DC Cells
• Human PBMC cells (All Cells, Cat No. PB002) • RPMI growth media containing 10% FBS • IFNγ (Peprotech, Cat No. 300-02) • GMCSF (Peprotech, Cat No. 300-03) and IL4 (Peprotech Cat No. 200-04) • White clear bottom 96 well plates (Fisher, Cat No. 07-200-587, Corning #3903) • LPS (Make 2.5 mg/ml Stock in PBS) from Sigma Aldrich (Cat No. L2018-5MG) • Cell Titer Glo reagent (Promega, Cat No. G7573) • Positive controls, IKK2VI inhibitor (Calbiochem, Cat No. 401483)
Human PBMC cells (400 million) obtained from the vendor were transferred into a T-175 flask containing 15 ml RPMI media (10% FBS) and incubate for 2 hours at 37 °C. […]
155 µl of the supernatant was harvested from each well carefully (without the tip touching the bottom of the well) and to the remaining 50 µl / well of the cell culture plate was added 50 µl of Cell Titer Glo reagent. The mixture was incubated for 1-2 minutes on a shaker and the plate was read for luminescence intensity to determine the compound cytotoxicity. […]
After 45 minutes, the plates were washed with TBST 4X and 100 ul / well Super Signal ELISA Pico Chemiluminescent Substrate from Pierce (3.5 ml A + 3.5 ml B + 3.5 ml MQ water) was added. The plates were shaken for 1-2 minutes then read on a plate reader. […]

TLR7-induced TNF-α = experiment: TNF-α in human monocyte-derived dendritic cells (gardiquimod); type: cell-based; details: human primary dendritic cells (DC); result in words
Description: After 2 hours, the media including floating cells was carefully removed and 12 ml of fresh RPMI media (10% FBS) containing GM-CSF (100 ng/ml) and IL-4 (20 ng/ml) were added to the adherent monocytes.
The differentiated dendritic cells (DC) were harvested by centrifugation (1200 rpm/5 min).

Structure (SMILES): CCO[C@H]1CC[C@H](n2cc(NC(=O)c3csc(-c4cn[nH]c4)n3)c(-c3ncccn3)n2)CC1 [Compound I-1, N-(1-((1r,4r)-4-ethoxycyclohexyl)-3-(pyrimidin-2-yl)-1H-pyrazol-4-yl)-2-(1H-pyrazol-4-yl)thiazole-4-carboxamide]
- more free in rat brain than Comparison-1 ([1]; rat brain homogenate): approximately 10 fold
- rat brain homogenate binding (free drug) ([1]; two runs, brain homogenate 1 brain /3 buffer, drug 5 µM, 5 µM): 1.06% and 1.43%
- IL-1β-induced production of the cytokine IL-6 [2]: potently inhibits
- more free than Comparision-1 [3]: approximately 6 times
- TLR4-dependent cytokine production (TLR4-dependent): potent inhibitor
- TLR2- induced TNF-α production (TLR2- induced TNF-α): blocks
- TLR4-induced IL-23 production (TLR4-induced IL-23): blocks
- TLR7- induced TNF-α production (TLR7-induced TNF-α): blocks
